# Test system: 282377-053-R-J1-PDC complex spheroid viability
# Test: Anticancer human tumor 282377-053-R-J1-PDC patient-derived colon adenocarcinoma cell line growth inhibition [RAS]
# Settings: for IC50: curve of first compound; for viability, T/C: stronger effect = lower value
# Method in brief: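 Agents were tested in combination matrices in half-log decrements from a top concentration at or near clinical Cmax (10 microM if undetermined). Targets were multi-cell spheroids of tumour lines plus HUVEC and MSC stromal cells.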
# [1] = second compound 0.00316 µM, first compound 0.0316 µM
# [2] = second compound 0.00316 µM, first compound 0.1 µM
# [3] = second compound 0.00316 µM, first compound 0.316 µM
# [4] = second compound 0.00316 µM, first compound 1 µM
# [5] = second compound 0.00316 µM, first compound 3.16 µM
# [6] = second compound 0.00316 µM, first compound 10 µM
# [7] = second compound 0.01 µM, first compound 0.0316 µM
# [8] = second compound 0.01 µM, first compound 0.1 µM
# [9] = second compound 0.01 µM, first compound 0.316 µM
# [10] = second compound 0.01 µM, first compound 1 µM
# [11] = second compound 0.01 µM, first compound 3.16 µM
# [12] = second compound 0.01 µM, first compound 10 µM
# [13] = second compound 0.0316 µM, first compound 0.0316 µM
# [14] = second compound 0.0316 µM, first compound 0.1 µM
# [15] = second compound 0.0316 µM, first compound 0.316 µM
# [16] = second compound 0.0316 µM, first compound 1 µM
# [17] = second compound 0.0316 µM, first compound 3.16 µM
# [18] = second compound 0.0316 µM, first compound 10 µM
# [19] = second compound 0.1 µM, first compound 0.0316 µM
# [20] = second compound 0.1 µM, first compound 0.1 µM
# [21] = second compound 0.1 µM, first compound 0.316 µM
# [22] = second compound 0.1 µM, first compound 1 µM
# [23] = second compound 0.1 µM, first compound 3.16 µM
# [24] = second compound 0.1 µM, first compound 10 µM
# [25] = second compound 0.316 µM, first compound 0.0316 µM
# [26] = second compound 0.316 µM, first compound 0.1 µM
# [27] = second compound 0.316 µM, first compound 0.316 µM
# [28] = second compound 0.316 µM, first compound 1 µM
# [29] = second compound 0.316 µM, first compound 3.16 µM
# [30] = second compound 0.316 µM, first compound 10 µM
# [31] = second compound 1 µM, first compound 0.0316 µM
# [32] = second compound 1 µM, first compound 0.1 µM
# [33] = second compound 1 µM, first compound 0.316 µM
# [34] = second compound 1 µM, first compound 1 µM
# [35] = second compound 1 µM, first compound 3.16 µM
# [36] = second compound 1 µM, first compound 10 µM
# 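Further: spheroids exposed to agents for seven days before readout.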
# 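Wherever viability, T/C is given: luminescence viability as percent of DMSO vehicle control wells.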
compound,measurement,setting,value
CC1(O)CCCC1n1c(=O)c(C(F)F)cc2cnc(NC3CCN(S(C)(=O)=O)CC3)nc21 (stereo not given) + C=CC(=O)N1CCN(c2nc(OCC3CCCN3C)nc3c(F)c(-c4nc(N)cc(C)c4C(F)(F)F)c(Cl)cc23)C(C)C1,IC50,second compound 0.00316 µM,6.01 µM
same,IC50,second compound 0.01 µM,6.03 µM
same,IC50,second compound 0.0316 µM,5.93 µM
same,IC50,second compound 0.1 µM,6.22 µM
same,IC50,second compound 0.316 µM,6.21 µM
same,IC50,second compound 1 µM,6.48 µM
same,"viability, T/C",[1],124%
same,"viability, T/C",[2],124%
same,"viability, T/C",[3],134%
same,"viability, T/C",[4],106%
same,"viability, T/C",[5],109%
same,"viability, T/C",[6],2.69%
same,"viability, T/C",[7],118%
same,"viability, T/C",[8],113%
same,"viability, T/C",[9],107%
same,"viability, T/C",[10],122%
same,"viability, T/C",[11],110%
same,"viability, T/C",[12],2.79%
same,"viability, T/C",[13],102%
same,"viability, T/C",[14],141%
same,"viability, T/C",[15],123%
same,"viability, T/C",[16],110%
same,"viability, T/C",[17],107%
same,"viability, T/C",[18],3.33%
same,"viability, T/C",[19],107%
same,"viability, T/C",[20],117%
same,"viability, T/C",[21],124%
same,"viability, T/C",[22],118%
same,"viability, T/C",[23],119%
same,"viability, T/C",[24],2.9%
same,"viability, T/C",[25],108%
same,"viability, T/C",[26],112%
same,"viability, T/C",[27],125%
same,"viability, T/C",[28],111%
same,"viability, T/C",[29],128%
same,"viability, T/C",[30],2.56%
same,"viability, T/C",[31],131%
same,"viability, T/C",[32],131%
same,"viability, T/C",[33],135%
same,"viability, T/C",[34],132%
same,"viability, T/C",[35],129%
same,"viability, T/C",[36],2.51%
CCC(CC)c1cc(NC2CCC(N)C2)n2nccc2n1 (stereo not given) + C=CC(=O)N1CCN(c2nc(OCC3CCCN3C)nc3c(F)c(-c4nc(N)cc(C)c4C(F)(F)F)c(Cl)cc23)C(C)C1,IC50,second compound 0.00316 µM,1.94 µM
same,IC50,second compound 0.01 µM,1.9 µM
same,IC50,second compound 0.0316 µM,1.82 µM
same,IC50,second compound 0.1 µM,1.69 µM
same,IC50,second compound 0.316 µM,1.86 µM
same,IC50,second compound 1 µM,1.89 µM
same,"viability, T/C",[1],117%
same,"viability, T/C",[2],101%
same,"viability, T/C",[3],93.8%
same,"viability, T/C",[4],116%
same,"viability, T/C",[5],7.62%
same,"viability, T/C",[6],2.24%
same,"viability, T/C",[7],110%
same,"viability, T/C",[8],98.1%
same,"viability, T/C",[9],92%
same,"viability, T/C",[10],115%
same,"viability, T/C",[11],7.28%
same,"viability, T/C",[12],1.55%
same,"viability, T/C",[13],103%
same,"viability, T/C",[14],97%
same,"viability, T/C",[15],96.3%
same,"viability, T/C",[16],94.5%
same,"viability, T/C",[17],8.89%
same,"viability, T/C",[18],1.69%
same,"viability, T/C",[19],124%
same,"viability, T/C",[20],107%
same,"viability, T/C",[21],113%
same,"viability, T/C",[22],85.3%
same,"viability, T/C",[23],7.78%
same,"viability, T/C",[24],1.54%
same,"viability, T/C",[25],111%
same,"viability, T/C",[26],105%
same,"viability, T/C",[27],109%
same,"viability, T/C",[28],100%
same,"viability, T/C",[29],7.41%
same,"viability, T/C",[30],1.9%
same,"viability, T/C",[31],109%
same,"viability, T/C",[32],103%
same,"viability, T/C",[33],123%
same,"viability, T/C",[34],102%
same,"viability, T/C",[35],7.89%
same,"viability, T/C",[36],2.25%
CCN1CCN(Cc2ccc(Nc3ncc(F)c(-c4cc(F)c5nc(C)n(C(C)C)c5c4)n3)nc2)CC1 + C=CC(=O)N1CCN(c2nc(OCC3CCCN3C)nc3c(F)c(-c4nc(N)cc(C)c4C(F)(F)F)c(Cl)cc23)C(C)C1,IC50,second compound 0.00316 µM,> 1 µM
same,IC50,second compound 0.01 µM,> 1 µM
same,IC50,second compound 0.0316 µM,> 1 µM
same,IC50,second compound 0.1 µM,> 1 µM
same,IC50,second compound 0.316 µM,> 1 µM
same,IC50,second compound 1 µM,> 1 µM
same,"viability, T/C","second compound 0.00316 µM, first compound 0.00316 µM",114%
same,"viability, T/C","second compound 0.00316 µM, first compound 0.01 µM",106%
same,"viability, T/C",[1],102%
same,"viability, T/C",[2],125%
same,"viability, T/C",[3],131%
same,"viability, T/C",[4],134%
same,"viability, T/C","second compound 0.01 µM, first compound 0.00316 µM",104%
same,"viability, T/C","second compound 0.01 µM, first compound 0.01 µM",106%
same,"viability, T/C",[7],91.4%
same,"viability, T/C",[8],112%
same,"viability, T/C",[9],146%
same,"viability, T/C",[10],131%
same,"viability, T/C","second compound 0.0316 µM, first compound 0.00316 µM",117%
same,"viability, T/C","second compound 0.0316 µM, first compound 0.01 µM",87.1%
same,"viability, T/C",[13],100%
same,"viability, T/C",[14],121%
same,"viability, T/C",[15],141%
same,"viability, T/C",[16],132%
same,"viability, T/C","second compound 0.1 µM, first compound 0.00316 µM",97.1%
same,"viability, T/C","second compound 0.1 µM, first compound 0.01 µM",108%
same,"viability, T/C",[19],100%
same,"viability, T/C",[20],104%
same,"viability, T/C",[21],106%
same,"viability, T/C",[22],135%
same,"viability, T/C","second compound 0.316 µM, first compound 0.00316 µM",85.5%
same,"viability, T/C","second compound 0.316 µM, first compound 0.01 µM",115%
same,"viability, T/C",[25],122%
same,"viability, T/C",[26],99.8%
same,"viability, T/C",[27],126%
same,"viability, T/C",[28],126%
same,"viability, T/C","second compound 1 µM, first compound 0.00316 µM",109%
same,"viability, T/C","second compound 1 µM, first compound 0.01 µM",104%
same,"viability, T/C",[31],121%
same,"viability, T/C",[32],113%
same,"viability, T/C",[33],138%
same,"viability, T/C",[34],134%
Cc1nc(N2CCC3(CC2)COC(C)C3N)c(CO)nc1Sc1ccnc(N)c1Cl (stereo not given) + C=CC(=O)N1CCN(c2nc(OCC3CCCN3C)nc3c(F)c(-c4nc(N)cc(C)c4C(F)(F)F)c(Cl)cc23)C(C)C1,IC50,second compound 0.00316 µM,> 10 µM
same,IC50,second compound 0.01 µM,> 10 µM
same,IC50,second compound 0.0316 µM,> 10 µM
same,IC50,second compound 0.1 µM,> 10 µM
same,IC50,second compound 0.316 µM,> 10 µM
same,IC50,second compound 1 µM,> 10 µM
same,"viability, T/C",[1],111%
same,"viability, T/C",[2],101%
same,"viability, T/C",[3],118%
same,"viability, T/C",[4],103%
same,"viability, T/C",[5],108%
same,"viability, T/C",[6],116%
same,"viability, T/C",[7],100%
same,"viability, T/C",[8],122%
same,"viability, T/C",[9],103%
same,"viability, T/C",[10],109%
same,"viability, T/C",[11],92.5%
same,"viability, T/C",[12],127%
same,"viability, T/C",[13],93.6%
same,"viability, T/C",[14],98.3%
same,"viability, T/C",[15],109%
same,"viability, T/C",[16],82.8%
same,"viability, T/C",[17],76.3%
same,"viability, T/C",[18],124%
same,"viability, T/C",[19],89.5%
same,"viability, T/C",[20],92.4%
same,"viability, T/C",[21],110%
same,"viability, T/C",[22],112%
same,"viability, T/C",[23],105%
same,"viability, T/C",[24],110%
same,"viability, T/C",[25],103%
same,"viability, T/C",[26],96.6%
same,"viability, T/C",[27],85.5%
same,"viability, T/C",[28],101%
same,"viability, T/C",[29],100%
same,"viability, T/C",[30],108%
same,"viability, T/C",[31],106%
same,"viability, T/C",[32],113%
same,"viability, T/C",[33],118%
same,"viability, T/C",[34],86.2%
same,"viability, T/C",[35],110%
same,"viability, T/C",[36],101%
NC1c2ccccc2OC12CCN(c1cnc3c(N4CCCc5ncccc54)n[nH]c3n1)CC2 (stereo not given) + C=CC(=O)N1CCN(c2nc(OCC3CCCN3C)nc3c(F)c(-c4nc(N)cc(C)c4C(F)(F)F)c(Cl)cc23)C(C)C1,IC50,second compound 0.00316 µM,> 10 µM
same,IC50,second compound 0.01 µM,> 10 µM
same,IC50,second compound 0.0316 µM,> 10 µM
same,IC50,second compound 0.1 µM,> 10 µM
same,IC50,second compound 0.316 µM,> 10 µM
same,IC50,second compound 1 µM,> 10 µM
same,"viability, T/C",[1],114%
same,"viability, T/C",[2],104%
same,"viability, T/C",[3],102%
same,"viability, T/C",[4],95%
same,"viability, T/C",[5],105%
same,"viability, T/C",[6],79%
same,"viability, T/C",[7],89.9%
same,"viability, T/C",[8],112%
same,"viability, T/C",[9],99.1%
same,"viability, T/C",[10],118%
same,"viability, T/C",[11],93.8%
same,"viability, T/C",[12],86.5%
same,"viability, T/C",[13],106%
same,"viability, T/C",[14],105%
same,"viability, T/C",[15],92.9%
same,"viability, T/C",[16],92.2%
same,"viability, T/C",[17],90.3%
same,"viability, T/C",[18],83.5%
same,"viability, T/C",[19],82.1%
same,"viability, T/C",[20],87.8%
same,"viability, T/C",[21],84.1%
same,"viability, T/C",[22],108%
same,"viability, T/C",[23],122%
same,"viability, T/C",[24],84.2%
same,"viability, T/C",[25],88%
same,"viability, T/C",[26],98.6%
same,"viability, T/C",[27],95.8%
same,"viability, T/C",[28],96.5%
same,"viability, T/C",[29],113%
same,"viability, T/C",[30],91.1%
same,"viability, T/C",[31],97.5%
same,"viability, T/C",[32],106%
same,"viability, T/C",[33],103%
same,"viability, T/C",[34],104%
same,"viability, T/C",[35],104%
same,"viability, T/C",[36],86.6%

# Reference: PubChem BioAssay AID2060905 (Molecular Pharmacology Branch, DTP, NCI, 2025)
